Assay results from ChEMBL document CHEMBL5143647, “Design, synthesis and biological evaluation of novel pyridine derivatives as gut-selective NaPi2b inhibitors” (Bioorg Med Chem Lett, 2022).
Values after ≈ are worked out from the molar mass of the structure shown. Active and inactive are the calls of the source. No cut-off for these calls is given here.

Columns and labels:
[1] = Oral bioavailability in Sprague-Dawley rat at 11.9 mg/kg measured for 24 hrs by liquid chromatography-tandem mass spectrometry; format: ADME, organism-based; settings: in vivo
[2] = molecular target: T1, Sodium-dependent phosphate transport protein 2B (Homo sapiens, UniProt O95436); test: Inhibition of human NaPi2b stably expressed in CHO-K1 cells assessed as reduction in H2[33P]O4 uptake incubated for 30 mins by liquid scintillation counting method; format: cell-based
T1 sequence (O95436 whole entry): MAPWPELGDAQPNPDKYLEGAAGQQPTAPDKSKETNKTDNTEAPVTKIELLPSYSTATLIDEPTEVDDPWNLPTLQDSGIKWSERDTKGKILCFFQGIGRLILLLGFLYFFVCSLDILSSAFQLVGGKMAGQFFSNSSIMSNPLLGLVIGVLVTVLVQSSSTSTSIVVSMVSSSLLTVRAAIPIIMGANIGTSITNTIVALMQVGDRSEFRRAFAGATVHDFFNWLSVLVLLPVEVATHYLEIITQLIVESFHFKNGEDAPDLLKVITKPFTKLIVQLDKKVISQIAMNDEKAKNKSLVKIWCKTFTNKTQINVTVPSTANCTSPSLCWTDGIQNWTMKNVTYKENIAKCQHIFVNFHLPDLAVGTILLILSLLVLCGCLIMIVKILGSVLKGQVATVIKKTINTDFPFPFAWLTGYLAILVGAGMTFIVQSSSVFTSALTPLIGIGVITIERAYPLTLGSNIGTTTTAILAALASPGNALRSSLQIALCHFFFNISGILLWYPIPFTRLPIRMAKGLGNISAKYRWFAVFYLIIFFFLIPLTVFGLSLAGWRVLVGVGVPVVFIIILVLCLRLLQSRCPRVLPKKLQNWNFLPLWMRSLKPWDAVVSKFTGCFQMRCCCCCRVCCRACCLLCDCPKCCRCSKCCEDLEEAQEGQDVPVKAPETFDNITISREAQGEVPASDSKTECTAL

[3] = molecular target: T2, Sodium-dependent phosphate transport protein 2B (Homo sapiens) (UniProt O95436); test: Inhibition of human NaPi2b at 1 uM relative to control
T2 sequence (whole entry): T1 sequence (O95436 whole entry)

[4] = Drug excretion in Sprague-Dawley rat feces at 10 mg/kg, po measured for 24 hrs by liquid chromatography-tandem mass spectrometry relative to control; format: ADME, organism-based; settings: faeces, read-out: Drug excretion
[5] = Solubility in FaSSIF at pH 6.6 incubated for 25 degC for 2 hrs further incubated water bath at 35 degC for 22 hrs by HPLC analysis; format: physicochemical
[6] = Solubility in FeSSIF at pH 4.9 incubated for 25 degC for 2 hrs further incubated water bath at 35 degC for 22 hrs by HPLC analysis; format: physicochemical
Rattus norvegicus = test: In vivo inhibition of NaPi2b in Sprague-Dawley rat assessed as reduction in phosphate absorption at 10 mg/kg, po after 5 mins followed by NaH2PO4 containing 32P-phosphate solution treatment and measured after 15 to 30 mins by liquid scintillation counting method; format: functional, organism-based; settings: dose […], time 35.0 min
[7] = Oral bioavailability in Sprague-Dawley rat at 10 mg/kg measured for 24 hrs by liquid chromatography-tandem mass spectrometry relative to control; format: ADME, organism-based; settings: in vivo

## CCN([C@H]1CC[C@H](C(=O)O)CC1)S(=O)(=O)c1cccc(C(=O)Nc2ccc(N3CCCCC3)nc2C(=O)Nc2ccc(CCc3ccc(C(=O)NS(=O)(=O)NC)cc3)cc2)c1
[1]
  bioavailability: 10.4%

## CCC(CC)N(CCN(C)C(=O)CCC(=O)O)Cc1cccc(C(=O)Nc2ccc(N3CCCCC3)nc2C(=O)Nc2ccc(Oc3ccc(C(=O)O)cc3)cc2)c1
[2]
  IC50: 162 nM

## CCC(CC)N(CCN(C)C(=O)CCC(=O)O)Cc1cccc(C(=O)Nc2[nH]c3c(c2C(=O)Nc2ccc(CCc4ccc(C(=O)O)cc4)cc2)CCCC3)c1
[3]
  inhibition: 87%

## CCN([C@H]1CC[C@H](C(=O)NCCOCCOCCOCCO)CC1)S(=O)(=O)c1cccc(C(=O)Nc2ccc(N3CCCCC3)nc2C(=O)Nc2ccc(CCc3ccc(C(=O)O)cc3)cc2)c1
[4]
  dose excreted at 24 h: 99.1%
[5]
  solubility at 24 h: 20.5 µg/mL (≈ 21.4 µM)
[6]
  solubility at 24 h: 15.9 µg/mL (≈ 16.6 µM)
Rattus norvegicus
  inhibition: Active
[7]
  bioavailability: 2.7%

## CCC(CC)N(CCN(C)C(=O)CCC(=O)O)Cc1cccc(C(=O)Nc2ccc(N3CCOCC3)nc2C(=O)Nc2ccc(CCc3ccc(C(=O)O)cc3)cc2)c1
[2]
  IC50: 205 nM

## CCC(CC)N(CCN(C)C(=O)CCC(=O)O)Cc1cccc(C(=O)Nc2ccc(N3CCCCC3)nc2C(=O)Nc2ccc(Oc3ccc(C(=O)O)cn3)cc2)c1
[2]
  IC50: 715 nM
